From patent publication US20250073255A1, “USE OF FA-TYPE LIPID COMPOUNDS IN PREPARATION OF NUCLEIC ACID DELIVERY REAGENT AND RELATED PRODUCT” (BEIJING BAISHIKANG PHARMACEUTICAL TECHNOLOGY (BSJPHARMA) …, priority 2021, published 2025)

System: C57BL/6 male mice
Experiment: In vivo delivery study of lipid nucleic acid mixture (oral gavage, RT-qPCR of PGY-sRNA-26 in tissues)
Parameters: species or system mouse
Conditions: for oral delivery of single-stranded sRNA nucleic acids into mouse blood / oral delivery of single-stranded sRNA nucleic acids into mouse brain tissue / oral delivery of single-stranded sRNA nucleic acids into mouse femur / oral delivery of single-stranded sRNA nucleic acids into mouse heart tissue / oral delivery of single-stranded sRNA nucleic acids into mouse kidney tissue / oral delivery of single-stranded sRNA nucleic acids into mouse liver tissue / oral delivery of single-stranded sRNA nucleic acids into mouse spleen tissue / oral delivery of single-stranded sRNA nucleic acids into mouse stomach tissue / oral delivery of single-stranded sRNA nucleic acids into mouse intestinal tissue / oral delivery of single-stranded sRNA nucleic acids into mouse lung tissue / oral delivery of single-stranded sRNA nucleic acids into mouse pancreatic tissue: 100 μg lipid:10 nmol PGY-sRNA-26, sampled after 12 hours; for oral delivery of single-stranded sRNA nucleic acids into mouse heart tissue: vs free uptake group; for oral delivery of single-stranded sRNA nucleic acids into mouse intestinal tissue: intestine; for oral delivery of single-stranded sRNA nucleic acids into mouse pancreatic tissue: pancreas; for overall delivery efficacy: delivering nucleic acids into each tissue and blood tested: 100 μg lipid:10 nmol PGY-sRNA-26, all tissues and blood tested
Summary of the method: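 Lipid (100 μg) and 10 nmol 3'-methylated single-stranded PGY-sRNA-26 were heated at 90 °C for 15 min, then given by oral gavage to mice fasted 12 h. Controls were saline and free sRNA. Blood and tissues were taken at 12 h, and levels were measured by stem-loop RT-qPCR relative to U6.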

## CCCCCCCCCCCCCCC=O [Lipid 574]
  oral delivery of single-stranded sRNA nucleic acids into mouse blood: can effectively orally deliver
  oral delivery of single-stranded sRNA nucleic acids into mouse brain tissue: can effectively orally deliver
  oral delivery of single-stranded sRNA nucleic acids into mouse femur: can effectively orally deliver
  oral delivery of single-stranded sRNA nucleic acids into mouse heart tissue: can effectively orally deliver
  oral delivery of single-stranded sRNA nucleic acids into mouse kidney tissue: can effectively orally deliver
  oral delivery of single-stranded sRNA nucleic acids into mouse liver tissue: can effectively orally deliver
  oral delivery of single-stranded sRNA nucleic acids into mouse spleen tissue: can effectively orally deliver
  oral delivery of single-stranded sRNA nucleic acids into mouse stomach tissue: can effectively orally deliver

## CCCCCCCCCCCC(C)O (stereo not drawn) [Lipid 505, tridecan-2-ol]
  oral delivery of single-stranded sRNA nucleic acids into mouse blood: can effectively orally deliver
  oral delivery of single-stranded sRNA nucleic acids into mouse brain tissue: can effectively orally deliver
  oral delivery of single-stranded sRNA nucleic acids into mouse liver tissue: can effectively orally deliver
  oral delivery of single-stranded sRNA nucleic acids into mouse stomach tissue: can effectively orally deliver

## CCCC/C=C\CCCCCCCC(=O)OCCCCCCCCCCCCCCCCCCCCCC [Lipid 817, docosyl (Z)-tetradec-9-enoate]
  oral delivery of single-stranded sRNA nucleic acids into mouse blood: can effectively orally deliver
  oral delivery of single-stranded sRNA nucleic acids into mouse brain tissue: can effectively orally deliver
  oral delivery of single-stranded sRNA nucleic acids into mouse femur: can effectively orally deliver
  oral delivery of single-stranded sRNA nucleic acids into mouse heart tissue: can effectively orally deliver
  oral delivery of single-stranded sRNA nucleic acids into mouse intestinal tissue: can effectively orally deliver
  oral delivery of single-stranded sRNA nucleic acids into mouse kidney tissue: can effectively orally deliver
  oral delivery of single-stranded sRNA nucleic acids into mouse liver tissue: can effectively orally deliver
  oral delivery of single-stranded sRNA nucleic acids into mouse lung tissue: can effectively orally deliver
  oral delivery of single-stranded sRNA nucleic acids into mouse pancreatic tissue: can effectively orally deliver
  oral delivery of single-stranded sRNA nucleic acids into mouse spleen tissue: can effectively orally deliver
  oral delivery of single-stranded sRNA nucleic acids into mouse stomach tissue: can effectively orally deliver

## CCCCCCCC/C=C/CCCCCCCCO [Lipid 600, (E)-octadec-9-en-1-ol]
  overall delivery efficacy: delivering nucleic acids into each tissue and blood tested: best delivery efficacy
  oral delivery of single-stranded sRNA nucleic acids into mouse blood: can effectively orally deliver
  oral delivery of single-stranded sRNA nucleic acids into mouse brain tissue: can effectively orally deliver
  oral delivery of single-stranded sRNA nucleic acids into mouse femur: can effectively orally deliver
  oral delivery of single-stranded sRNA nucleic acids into mouse heart tissue: can effectively orally deliver
  oral delivery of single-stranded sRNA nucleic acids into mouse intestinal tissue: can effectively orally deliver
  oral delivery of single-stranded sRNA nucleic acids into mouse kidney tissue: can effectively orally deliver
  oral delivery of single-stranded sRNA nucleic acids into mouse liver tissue: can effectively orally deliver
  oral delivery of single-stranded sRNA nucleic acids into mouse lung tissue: can effectively orally deliver
  oral delivery of single-stranded sRNA nucleic acids into mouse spleen tissue: can effectively orally deliver
  oral delivery of single-stranded sRNA nucleic acids into mouse stomach tissue: can effectively orally deliver

## CCCCCCCCCCCCCCCC=O [Lipid 602]
  overall delivery efficacy: delivering nucleic acids into each tissue and blood tested: best delivery efficacy
  oral delivery of single-stranded sRNA nucleic acids into mouse blood: can effectively orally deliver
  oral delivery of single-stranded sRNA nucleic acids into mouse brain tissue: can effectively orally deliver
  oral delivery of single-stranded sRNA nucleic acids into mouse femur: can effectively orally deliver
  oral delivery of single-stranded sRNA nucleic acids into mouse heart tissue: can effectively orally deliver
  oral delivery of single-stranded sRNA nucleic acids into mouse intestinal tissue: can effectively orally deliver
  oral delivery of single-stranded sRNA nucleic acids into mouse kidney tissue: can effectively orally deliver
  oral delivery of single-stranded sRNA nucleic acids into mouse liver tissue: can effectively orally deliver
  oral delivery of single-stranded sRNA nucleic acids into mouse lung tissue: can effectively orally deliver
  oral delivery of single-stranded sRNA nucleic acids into mouse spleen tissue: can effectively orally deliver
  oral delivery of single-stranded sRNA nucleic acids into mouse stomach tissue: can effectively orally deliver

## C=C(C)CCOC(=O)CCCCCCCCCCCCCCCCCCC [Lipid 814, 3-methylbut-3-enyl icosanoate]
  oral delivery of single-stranded sRNA nucleic acids into mouse blood: can effectively orally deliver
  oral delivery of single-stranded sRNA nucleic acids into mouse brain tissue: can effectively orally deliver
  oral delivery of single-stranded sRNA nucleic acids into mouse femur: can effectively orally deliver
  oral delivery of single-stranded sRNA nucleic acids into mouse heart tissue: can effectively orally deliver
  oral delivery of single-stranded sRNA nucleic acids into mouse intestinal tissue: can effectively orally deliver
  oral delivery of single-stranded sRNA nucleic acids into mouse kidney tissue: can effectively orally deliver
  oral delivery of single-stranded sRNA nucleic acids into mouse liver tissue: can effectively orally deliver
  oral delivery of single-stranded sRNA nucleic acids into mouse lung tissue: can effectively orally deliver
  oral delivery of single-stranded sRNA nucleic acids into mouse pancreatic tissue: can effectively orally deliver
  oral delivery of single-stranded sRNA nucleic acids into mouse spleen tissue: can effectively orally deliver
  oral delivery of single-stranded sRNA nucleic acids into mouse stomach tissue: can effectively orally deliver

## CCCCCCCCCCCCCC(C)=O [Lipid 593, pentadecan-2-one]
  overall delivery efficacy: delivering nucleic acids into each tissue and blood tested: best delivery efficacy
  oral delivery of single-stranded sRNA nucleic acids into mouse blood: can effectively orally deliver
  oral delivery of single-stranded sRNA nucleic acids into mouse brain tissue: can effectively orally deliver
  oral delivery of single-stranded sRNA nucleic acids into mouse femur: can effectively orally deliver
  oral delivery of single-stranded sRNA nucleic acids into mouse heart tissue: can effectively orally deliver
  oral delivery of single-stranded sRNA nucleic acids into mouse intestinal tissue: can effectively orally deliver
  oral delivery of single-stranded sRNA nucleic acids into mouse kidney tissue: can effectively orally deliver
  oral delivery of single-stranded sRNA nucleic acids into mouse liver tissue: can effectively orally deliver
  oral delivery of single-stranded sRNA nucleic acids into mouse lung tissue: can effectively orally deliver
  oral delivery of single-stranded sRNA nucleic acids into mouse spleen tissue: can effectively orally deliver
  oral delivery of single-stranded sRNA nucleic acids into mouse stomach tissue: can effectively orally deliver

## COc1cc(CNC(=O)CCCC/C=C/C(C)C)ccc1O [Lipid 537]
  overall delivery efficacy: delivering nucleic acids into each tissue and blood tested: best delivery efficacy
  oral delivery of single-stranded sRNA nucleic acids into mouse blood: can effectively orally deliver
  oral delivery of single-stranded sRNA nucleic acids into mouse brain tissue: can effectively orally deliver
  oral delivery of single-stranded sRNA nucleic acids into mouse femur: can effectively orally deliver
  oral delivery of single-stranded sRNA nucleic acids into mouse heart tissue: can effectively orally deliver
  oral delivery of single-stranded sRNA nucleic acids into mouse intestinal tissue: can effectively orally deliver
  oral delivery of single-stranded sRNA nucleic acids into mouse kidney tissue: can effectively orally deliver
  oral delivery of single-stranded sRNA nucleic acids into mouse liver tissue: can effectively orally deliver
  oral delivery of single-stranded sRNA nucleic acids into mouse lung tissue: can effectively orally deliver
  oral delivery of single-stranded sRNA nucleic acids into mouse spleen tissue: can effectively orally deliver
  oral delivery of single-stranded sRNA nucleic acids into mouse stomach tissue: can effectively orally deliver
